Experiments:
[1] = tested on: human peritoneal mesothelial cell (HPMC); assay: HPMC proliferation, Alamar Blue and MTT assay; type: cell-based; settings: 48 hours and 72 hours; over the tested concentrations in supplemented M199
Protocol: The effect of a phospholipid prepared as described in Example 1 (and/or its constituent compounds) to induce human peritoneal mesothelial cell proliferation was assessed using an Alamar Blue™ assay and an MTT assay.
The Alamar Blue™ assay is designed to measure the proliferation of various cell types by measuring the ability of the cells to metabolise and reduce a REDOX indicator (Alamar Blue™). Reduction of the REDOX indicator results in a change in its fluorescent activity. Therefore the fluorescent activity measured is proportional to cell proliferation.
The MTT Assay measures the proliferations of various cells and is based on the mitochondrial conversion of tetrazolium salt 3-[4,5-dimethyl-thiazol-2-yl]-2,5-diphenyltetrazium bromide (MTT), into an insoluble formazan salt. The resultant colour change is directly related to the number of viable cells.
As described in Morgan L W et al (“Glucose degradation products (GDP) retard re-mesothelialisation independently of D-glucose concentration.” Kidney Int 64:1854-1866, 2003), primary HPMC are isolated from omental tissue biopsies donated by consenting patients undergoing elective abdominal surgery. Cells were grown to approximately 60% confluence in 96 well plates (Falcon) and used at passage 2. All cells were growth arrested in serum free M199 for 24 hours prior to use.
The supplemented M199 medium was prepared as follows. Earle's salt medium M199 was supplemented with 100μ/ml penicillin, 100 μg/ml streptomycin, 2 mM glutamine, 5 μg/ml insulin, 5 μg/ml transferrin and 0.4 μg/ml hydrocortisone and 2 mmol/L N-2-hydroxyethylpiperazine-N′-2ethanesulfonic acid.
The phospholipid prepared as described in Example 1 was prepared as follows. […]
The growth medium was aspirated from each well and then the well was washed once using 200 μl per well of supplemented M199. […] The fluorescent activity of Alamar Blue™ at 540 nm (wavelength) was measured using a Dynex Revalation 96-multiwell plate reader. […]

HPMC = HPMC ATP bioluminescence assay; type: cell-based, human; settings: 72 hours
Protocol: The viability of HPMC after stimulation with FCS, phospholipid prepared according to Example 1 (Vibrated and Non-vibrated), lysophosphatidic acid (LPA), DPPC, DPPC/LPA, POPC, Curosurf, egg-PG (EPG) and the three Intralipid™ products was determined using an ATP assay. This assay measures the light emitted during the ATP dependant oxidation of luciferin in order to accurately quantify the ATP concentration.
As described in Example 3, primary HPMC are isolated from omental tissue biopsies donated by consenting patients undergoing elective abdominal surgery. Cells are grown to approximately 60% confluence in 96 well plates (Falcon) and used at passage 2. All cells are growth arrested in serum free M199 for 24 hours prior to use.
An ATP Bioluminescence Assay Kit CLS II (Roche Diagnostics, Cat No 1 699 695, 11857300) was used. It contains ATP Standard, Luciferase and distilled water. A 10 mM EDTA solution was prepared by dissolving 1.8612 g EDTA (Fischer Scientific, Code D/0650/60, Batch 0447430, Mr-372.24) in 500 ml H2O (or 3.7224 g in 1 litre). A BAC-extract solution was prepared by dissolving 1 g Benzalkonium Chloride (Sigma-Aldrich, Cat:-23, 442-7, Lot S22104-334) in 1 litre of 10 mM EDTA. […]
To mix, rotate the bottle carefully. • 2) Make up an ATP standard solution having a base concentration of 1.65 μM ATP. […] Use distilled water as the control. • 4) Set the Fluostar Optima plate reader to measure luminescence. Set the Fluostar Optima plate reader pump to inject 20 μl of luciferase into each of the required wells. • 5) Place the plate into the plate reader and measure the relative light units (RLU). • 6) Prepare a standard curve such as that shown in FIG. 16 by plotting a graph of RLU against ATP concentration.
96 well plates from the HPMC proliferation study were defrosted. […] The ATP concentrations were calculated from the RLU of the samples using the standard curve. As an alternative to using an ATP standard curve, data can be normalised to the un-stimulated control and expressed as “ATP (% of control)”.

Row | Compound | HPMC proliferation compared to the negative control [1] | HPMC proliferation by ATP assay (ATP % of control) compared to the negative control (HPMC; single well, over the tested concentrations) | HPMC proliferation by ATP assay compared to the negative control (HPMC; 0.0875 mg/ml, FIG. 11G)
1 | Lysophosphatidic acid [LPA] | no significant stimulation of HPMC proliferation | no increase of HPMC proliferation | –
2 | CCCCCCCC/C=C\CCCCCCCC(=O)O[C@H](COC(=O)CCCCCCCCCCCCCCC)COP(=O)([O-])OCC[N+](C)(C)C [POPC, Palmitoyl oleoyl phosphatidyl choline] | no significant stimulation of HPMC proliferation | – | increased HPMC proliferation
